Experimental data reported in PubChem BioAssay AID1963842 (Molecular Pharmacology Branch, DTP, NCI, 2024).

Test system: 677734-321-R-J1-PDC complex spheroid viability
Assay: Anticancer human tumor 677734-321-R-J1-PDC patient-derived soft tissue sarcoma cell line growth inhibition [POLQ]
Settings: for IC50: curve of first compound; for viability, T/C: stronger effect = lower value
Description: Multicellular complex tumor spheroid response to Polymerase (POL) inhibitors (novobiocin, ART-558, RP6685) in combination with a variety of drugs and investigational agents in selected tumor cell lines
The POL inhibitors (novobiocin, ART-558, and RP6685) were evaluated both individually and in combination with standard of care and investigational anticancer small molecules within a complex spheroid model of solid tumors. . Complex spheroids include a stromal component modeled by human endothelial cells (HUVEC) and fibroblasts modeled by human mesenchymal stem cells (MSCs). The concentration ranges selected for each drug and investigational agent were based upon clinically achievable concentrations if the clinical Cmax of the agent was known.
Compounds. The drugs and investigational agents: novobiocin (NSC847541), ART-558 (NSC835418), RP-6685 (NSC848927), peposertib (NSC802822), ceralasertib (NSC780249), elimusertib (NSC800525), camonsertib (NSC841442), AZD-1390 (NSC803789), olaparib (NSC753686), talazoparib (NSC767125), rucaparib (NSC756644), sotorasib (NSC818433), MRTX-1133 (NSC836407), SN-38 (NSC673596), topotecan (NSC609699), epotoside (NSC141540), doxorubicin (NSC123127), gemcitabine (NSC613327), 5-fluorouracil (NSC19893), paclitaxel (NSC125973), vemurafenib (NSC761431), MSA-2 (NSC828583), SN-011 (NSC837082), adavosertib (NSC754352), prexasertib (NSC758257), carboplatin (NSC241240) and oxaliplatin (NSC266046), were obtained from the National Cancer Institute (NCI) Developmental Therapeutics Program Chemical Repository (21). The FDA-approved anticancer drug set is available from the Developmental Therapeutics Program at https://dtp.cancer.gov/organization/dscb/obtaining/. […] The stock solutions were prepared in dimethyl sulfoxide (DMSO, Sigma-Aldrich, St. Louis, MO, cat. D2650), except for the platinum compounds which were prepared in saline (Quality Biological, Gaithersburg, MD, cat. 114-055-101), at 800-fold the tested concentration and stored at -70 degrees C prior to their use. All drugs and investigational agents were tested over a range starting from a high concentration at or near the clinical Cmax and decreasing in half-log increments. If the clinical Cmax for an agent had not been determined, the highest concentration tested was 10 microM, except for SN-38, which was tested at a high concentration of 1 microM.
Cell Culture. All cells were maintained in an incubator at 37 degrees C and 5% CO2 with 95% humidity. The PDC lines were cultured according to standard operating procedures established by the NCI PDMR (https://pdmr.cancer.gov). Table 3 of the manuscript, lists the cell lines along with the number of the three cell types plated to form the mct-spheroids and media for tumor cell growth. After thawing, all PDC lines, except 997537-175-T-J1-PDC and 415267-285-R-J2-PDC, were cultured in Matrigel-coated flasks prepared with a working solution of 1X Ham's F-12 nutrient mix, without supplementation (Thermo Fisher Scientific, cat. 11765054), 100 U/mL penicillin-streptomycin (Thermo Fisher Scientific, cat. 15140122), and 2.5% Matrigel (Corning Inc., Corning, NY, cat. 354248) for the first three passages. The two PDC lines 997537-175-T-J1-PDC and 415267-285-R-J2-PDC were cultured on uncoated flasks. The 857933-349-R-J2-PDC line was cultured in 6C/Colon 1B media containing advanced DMEM/F-12 (Thermo Fisher Scientific, cat. 12634028), 10 mM HEPES (Thermo Fisher Scientific, cat. 15630080), 1X GlutaMAX supplement (Thermo Fisher Scientific, cat. 35050061), 0.1 mg/mL primocin (InvivoGen, San Diego, CA, cat. ant-pm-2), 10% defined fetal bovine serum, heat inactivated (HyClone Laboratories Inc., Logan, UT, cat. SH30070.03HI), 50% L-WRN conditioned media (ATCC, cat. CRL-3276), 1.25 mM N-Acetyl-L-cysteine (Sigma-Aldrich, cat. A9165), 10 mM nicotinamide (Sigma-Aldrich, cat. N0636), 1X B-27 supplement (Thermo Fisher Scientific, cat. 17504044), 1X N-2 supplement (Thermo Fisher Scientific, cat. […]

[1] = second compound 0.0316 µM, first compound 0.0316 µM
[2] = second compound 0.0316 µM, first compound 0.1 µM
[3] = second compound 0.0316 µM, first compound 0.316 µM
[4] = second compound 0.0316 µM, first compound 1 µM
[5] = second compound 0.0316 µM, first compound 3.16 µM
[6] = second compound 0.0316 µM, first compound 10 µM
[7] = second compound 0.1 µM, first compound 0.0316 µM
[8] = second compound 0.1 µM, first compound 0.1 µM
[9] = second compound 0.1 µM, first compound 0.316 µM
[10] = second compound 0.1 µM, first compound 1 µM
[11] = second compound 0.1 µM, first compound 3.16 µM
[12] = second compound 0.1 µM, first compound 10 µM
[13] = second compound 0.316 µM, first compound 0.0316 µM
[14] = second compound 0.316 µM, first compound 0.1 µM
[15] = second compound 0.316 µM, first compound 0.316 µM
[16] = second compound 0.316 µM, first compound 1 µM
[17] = second compound 0.316 µM, first compound 3.16 µM
[18] = second compound 0.316 µM, first compound 10 µM
[19] = second compound 1 µM, first compound 0.0316 µM
[20] = second compound 1 µM, first compound 0.1 µM
[21] = second compound 1 µM, first compound 0.316 µM
[22] = second compound 1 µM, first compound 1 µM
[23] = second compound 1 µM, first compound 3.16 µM
[24] = second compound 1 µM, first compound 10 µM
[25] = second compound 3.16 µM, first compound 0.0316 µM
[26] = second compound 3.16 µM, first compound 0.1 µM
[27] = second compound 3.16 µM, first compound 0.316 µM
[28] = second compound 3.16 µM, first compound 1 µM
[29] = second compound 3.16 µM, first compound 3.16 µM
[30] = second compound 3.16 µM, first compound 10 µM
[31] = second compound 10 µM, first compound 0.0316 µM
[32] = second compound 10 µM, first compound 0.1 µM
[33] = second compound 10 µM, first compound 0.316 µM
[34] = second compound 10 µM, first compound 1 µM
[35] = second compound 10 µM, first compound 3.16 µM
[36] = second compound 10 µM, first compound 10 µM
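Note: spheroids exposed to compounds for one week.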
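Throughout, for viability, T/C: 100% = vehicle DMSO treated spheroids.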

## Nc1ccn(C2OC(CO)C(O)C2(F)F)c(=O)n1 (centres undefined) + COC1C(OC(N)=O)C(O)C(Oc2ccc3c(O)c(NC(=O)c4ccc(O)c(CC=C(C)C)c4)c(=O)oc3c2C)OC1(C)C
Second compound 0.0316 µM
  IC50: < 31.6 nM
Second compound 0.1 µM
  IC50: < 31.6 nM
Second compound 0.316 µM
  IC50: < 31.6 nM
Second compound 1 µM
  IC50: < 31.6 nM
Second compound 3.16 µM
  IC50: < 31.6 nM
Second compound 10 µM
  IC50: < 31.6 nM
[1]
  viability, T/C: 32.5%
[2]
  viability, T/C: 15.3%
[3]
  viability, T/C: 13.9%
[4]
  viability, T/C: 11.8%
[5]
  viability, T/C: 10.9%
[6]
  viability, T/C: 8.72%
[7]
  viability, T/C: 38.9%
[8]
  viability, T/C: 17.6%
[9]
  viability, T/C: 14%
[10]
  viability, T/C: 12.8%
[11]
  viability, T/C: 8.3%
[12]
  viability, T/C: 9.61%
[13]
  viability, T/C: 30.9%
[14]
  viability, T/C: 16.8%
[15]
  viability, T/C: 15.9%
[16]
  viability, T/C: 13.1%
[17]
  viability, T/C: 12.1%
[18]
  viability, T/C: 8.63%
[19]
  viability, T/C: 30.2%
[20]
  viability, T/C: 17.2%
[21]
  viability, T/C: 11.1%
[22]
  viability, T/C: 14.3%
[23]
  viability, T/C: 11.7%
[24]
  viability, T/C: 7.96%
[25]
  viability, T/C: 30.1%
[26]
  viability, T/C: 16.6%
[27]
  viability, T/C: 12.9%
[28]
  viability, T/C: 14.5%
[29]
  viability, T/C: 11.4%
[30]
  viability, T/C: 8.33%
[31]
  viability, T/C: 39.1%
[32]
  viability, T/C: 12.8%
[33]
  viability, T/C: 12.1%
[34]
  viability, T/C: 13.1%
[35]
  viability, T/C: 11.1%
[36]
  viability, T/C: 11%

## O=c1[nH]cc(F)c(=O)[nH]1 + COC1C(OC(N)=O)C(O)C(Oc2ccc3c(O)c(NC(=O)c4ccc(O)c(CC=C(C)C)c4)c(=O)oc3c2C)OC1(C)C
Second compound 0.0316 µM
  IC50: 2780 nM
Second compound 0.1 µM
  IC50: 3130 nM
Second compound 0.316 µM
  IC50: 2910 nM
Second compound 1 µM
  IC50: 3150 nM
Second compound 3.16 µM
  IC50: 6550 nM
Second compound 10 µM
  IC50: 2870 nM
[1]
  viability, T/C: 113%
[2]
  viability, T/C: 98.6%
[3]
  viability, T/C: 106%
[4]
  viability, T/C: 94.8%
[5]
  viability, T/C: 44.4%
[6]
  viability, T/C: 40.5%
[7]
  viability, T/C: 111%
[8]
  viability, T/C: 103%
[9]
  viability, T/C: 103%
[10]
  viability, T/C: 91.9%
[11]
  viability, T/C: 49.3%
[12]
  viability, T/C: 43.2%
[13]
  viability, T/C: 107%
[14]
  viability, T/C: 102%
[15]
  viability, T/C: 108%
[16]
  viability, T/C: 98.5%
[17]
  viability, T/C: 46.2%
[18]
  viability, T/C: 37.1%
[19]
  viability, T/C: 117%
[20]
  viability, T/C: 101%
[21]
  viability, T/C: 112%
[22]
  viability, T/C: 91.6%
[23]
  viability, T/C: 50.2%
[24]
  viability, T/C: 41.1%
[25]
  viability, T/C: 106%
[26]
  viability, T/C: 101%
[27]
  viability, T/C: 121%
[28]
  viability, T/C: 83.7%
[29]
  viability, T/C: 63.1%
[30]
  viability, T/C: 42.8%
[31]
  viability, T/C: 105%
[32]
  viability, T/C: 107%
[33]
  viability, T/C: 115%
[34]
  viability, T/C: 89.7%
[35]
  viability, T/C: 47.5%
[36]
  viability, T/C: 43.3%
